Measured values as given in patent US20220062233A1 (The Board of Trustees of the Leland Stanford Junior …, priority 2018, published 2022).

Legend:
[1] = tested on: Gmr::HTT97Q fly (mutant HTT, rough eye); assay: HD-Drosophila phenotypic assay (rough eye analysis); type: in vivo, Drosophila melanogaster; conditions: Gmr-HTT97Q flies, compound 10 μM in media
From the text: D. Alleviation of Neuron Degeneration Phenotypes of Mutant HTT in Drosophila HD Models
The Drosophila melanogaster (fruit fly) HD models carry the coding sequence of human HTT exon1 with 97 CAG repeats to mimic mutant HTT of Huntington's disease (HD). The Gmr::HTT97Q fly, expressing mutant HTT primarily in the neurons of Drosophila compound eyes, has a severe degeneration of photoreceptor neurons and the phenotypic trait ‘rough eye’. All of the fly stocks and genetics crosses are maintained at 25° C. on standard cornmeal yeast agar media.
b. Eye Morphology (Rough Eye) Analysis
Fifteen adult male flies (Gmr-HTT97Q/Gmr-HTT97Q or Gmr/Gmr) are crossed with 15 virgin female flies W1118(+/+) in a vial containing standard yeast agar media with the compound in a concentration of 10 μM. Parent-flies are removed from vials at day 7, followed by a collection of newly hatched flies for ‘rough eye’ analysis. The morphology of compound eyes is captured using a Leica DMR upright microscope equipped with a digital camera (CoolSNAP 5.0, Photometrics). To increase the depth of field, imaging software is used to create montage composite images (Helicon Focus, HeliconSoft). A total of 10 flies are collected for analysis in each individual condition, and the biological experiment is conducted three times. DMSO, the reagent solvent of the compound, is included as a control.

[2] = In vivo pharmacokinetics and brain penetration, single dose, rat
Experimental: (§1) B. In Vivo Pharmacokinetics and Brain Penetration
(§2) The pharmacokinetic assessment was carried out in rodents (e.g. Sprague-Dawley rats or C57BL6 mice) after a single dose administration by IV (e.g., 0.5 mg/kg) or PO (e.g., 5 mg/kg). Biological samples were collected at pre-determined time points, batch-processed, and the test articles were extracted and quantified with LC-MS, utilizing internal standards and separately prepared calibration curves. Blood (or plasma) concentration to time profiles were acquired for compounds and a selected list is presented in Table 6 with the non-compartmental PK parameters (e.g., peak concentration in circulation (Cmax), absolute bioavailability (Fabs), elimination half-life, clearance (CL), and volume of distribution at steady state (Vdss)). Upon terminal collection, the brains were also collected and homogenized in an extraction buffer, followed by quantification with LC-MS. After brain concentration levels (ng/g of brain tissue) were determined, the mean ratios of the brain-to-blood (BB) concentration (or brain-to-plasma concentration) at various collection time points were averaged, then shown in Table 6 as BB Ratio to indicate the extent of brain penetration.

[3] = In vivo pharmacokinetics and brain penetration, single dose, mouse; conditions: for clearance / half-life / Vd / Cmax: C57BL6, blood; for clearance / half-life / Vd: intravenous, 0.5 mg/kg; for clearance / half-life / Vd / Cmax / Kp / Fabs (%): Mouse; for clearance / half-life / Vd / Cmax / Kp: single dose; for half-life: read-out: Elimination Half-life (converted); for Vd: read-out: Vdss; for Cmax: oral, 5 mg/kg, read-out: Cmax (maximum concentration in blood or plasma); for Kp: C57BL6, brain / blood, averaged over collection time points, read-out: BB_Ratios (brain-to-blood concentration ratio); for Fabs (%): single dose IV/PO
Experimental: as §1, §2
FIG. 1A is a graph showing in vitro mouse hepatocyte stability on compound #2 (closed circle) and compound #42 (open circle). FIG. 1B is a graph showing blood concentration-time profile of mouse (N=3 per group) after IV administration of 0.5 mg/kg of compound #2 (closed circle) or #42 (open circle), or PO administration of 5 mg/kg of compound #2 (closed triangle) or #42 (open triangle).

mutant HTT = assay: Mutant HTT assay in induced pluripotent stem cells (iPSC); type: cell-based, human; conditions: HD patient iPSCs, one day incubation; class symbols; read-out: iPSC IC20 (nM) mHTT
Outline: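 Huntington's disease patient iPSCs (ND50036) plated at 7,000 cells/well, compound-treated after 48 h for one day in mTeSR1. Lysates normalised by BCA protein, then mutant HTT measured by sandwich ELISA: anti-human HTT capture, biotinylated mutant-HTT-specific detection, streptavidin-HRP/TMB colorimetric readout, interpolated from a standard curve.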

[4] = tested on: Huntington's disease patient iPSCs (ND50036); assay: iPSC viability at IC20; type: cell-based, human; conditions: at the concentration of IC20
[5] = mouse, PO 5 mg/kg, compound #42 versus #2

SMILES: OCc1ccc(CNC2CCCc3c2[nH]c2ccc(Br)cc32)cc1 (centres unmarked) [Compound 1]
- HD-Drosophila Phenotypic assay (rescue of rough eye phenotype) [1]: & (rough eye phenotype of HD flies is rescued by testing compound greater than 40%)
- Kp ([2]; Sprague-Dawley, brain / blood, single dose, averaged over collection time points, read-out: BB_Ratios (brain-to-blood concentration ratio)): ≥ 1
- clearance ([2]; Sprague-Dawley, in vivo, intravenous, single dose): 85 mL/min/kg
- Vd ([2]; Sprague-Dawley, in vivo, intravenous, single dose, read-out: Vdss): 12 L/kg
- Cmax ([2]; Sprague-Dawley, in vivo, single dose, read-out: Cmax (maximum concentration in blood or plasma)): 100 to 300 nM
- half-life ([2]; Sprague-Dawley, in vivo, single dose, read-out: Elimination Half-life (converted)): 1.9 h
- Fabs (%) ([2]; single dose IV/PO): <30%

SMILES: OCCOCc1ccc(CN[C@@H]2CCCc3c2[nH]c2ccc(Br)cc32)cc1 (single isomer, unassigned) [Compound 28]
- clearance [3]: 16.7 mL/min/kg
- half-life [3]: 2.4 h
- Vd [3]: 3.3 L/kg
- Cmax [3]: > 300 nM
- Kp [3]: ≥ 1
- Fabs (%) [3]: >70%
- IC20 (mutant HTT): < 100 nM
- iPSC viability at IC20 [4]: + (cell viability is greater than 75% at the concentration of IC20)

SMILES: OCc1ccc(CN[C@@H]2CCCc3c2[nH]c2ccc(Br)cc32)cc1 [Compound 2, (R)-(4-(((6-bromo-2,3,4,9-tetrahydro-1H-carbazol-1-yl)amino)methyl)phenyl)methanol]
- clearance [3]: 183 mL/min/kg
- half-life [3]: 0.8 h
- Vd [3]: 11 L/kg
- Cmax [3]: < 100 nM
- Fabs (%) [3]: <30%
- HD-Drosophila Phenotypic assay (rescue of rough eye phenotype) [1]: & (rough eye phenotype of HD flies is rescued by testing compound greater than 40%)
- IC20 (mutant HTT): < 100 nM
- iPSC viability at IC20 [4]: + (cell viability is greater than 75% at the concentration of IC20)

SMILES: CC(C)(O)c1ccc(CN[C@@H]2CCCc3c2[nH]c2ccc(Br)cc32)cc1 [Compound 31, (R)-2-(4-(((6-bromo-2,3,4,9-tetrahydro-1H-carbazol-1-yl)amino)methyl)phenyl)propan-2-ol]
- clearance [3]: 50 mL/min/kg
- half-life [3]: 2.6 h
- Vd [3]: 9.1 L/kg
- Cmax [3]: 100 to 300 nM
- Kp [3]: ≥ 1
- Fabs (%) [3]: 30-70%
- IC20 (mutant HTT): < 100 nM
- iPSC viability at IC20 [4]: + (cell viability is greater than 75% at the concentration of IC20)

SMILES: CS(=N)(=O)c1ccc(CN[C@@H]2CCCc3c2[nH]c2ccc(Br)cc32)cc1 (stereo partly drawn) [Compound 49, (4-((((R)-6-bromo-2,3,4,9-tetrahydro-1H-carbazol-1-yl)amino)methyl)phenyl)(imino)(methyl)-λ^6-sulfanone]
- clearance [3]: 55 mL/min/kg
- half-life [3]: 1.1 h
- Vd [3]: 5.1 L/kg
- Cmax [3]: > 300 nM
- Kp [3]: ≥ 1
- Fabs (%) [3]: <30%
- IC20 (mutant HTT): < 100 nM
- iPSC viability at IC20 [4]: + (cell viability is greater than 75% at the concentration of IC20)

SMILES: [2H]C([2H])(O)c1ccc(CN[C@@H]2CCCc3c2[nH]c2ccc(Br)cc32)cc1 [Compound 42, (R)-(4-(((6-bromo-2,3,4,9-tetrahydro-1H-carbazol-1-yl)amino)methyl)phenyl)methan-d2-ol]
- clearance [3]: 80 mL/min/kg
- half-life [3]: 1.2 h
- Vd [3]: 7.2 L/kg
- Cmax [3]: 100 to 300 nM
- Fabs (%) [3]: <30%
- elimination half-life (comparison) ([3]; mouse, IV 0.5 mg/kg, compound #42 versus #2, FIG. 1B): longer
- Cmax (comparison) [3, 5]: significantly increased
- Fabs (comparison) [3, 5]: significantly increased
- CL (comparison) ([3]; mouse, randomized cross-over after 48-hour washout, compound #42 versus #2): slower CL
- IC20 (mutant HTT): < 100 nM
- iPSC viability at IC20 [4]: + (cell viability is greater than 75% at the concentration of IC20)
